US20240148888A1, “INTERCELLULAR ADHESION MOLECULE 1 (ICAM1) ANTIBODY DRUG CONJUGATE AND USES THEREOF” (priority 2021, published 2024)
Blank lines part the entries; values can stand above or below the compound they belong to.

Columns and labels:
MDA-MB-436 tumors = assay: In vivo efficacy, orthotopic TNBC model, standard setting; settings: 5 mg/kg equivalent dosage
Description: For the in vivo efficacy studies, orthotopic TNBC tumors (MDA-MB-436 or MDA-MB-231) were established in 6-8 weeks old female nude mice as described above. Tumors were grown to reach 100 mm^3 for standard setting treatment or 500 mm^3 for late-stage treatment. […] Tumor growth was monitored weekly using caliper. At the endpoint, animals were euthanized with CO2 and orthotopic tumors were excised to measure their mass.

[1] = target: intercellular adhesion molecule 1 (ICAM1) from Homo sapiens (Homo sapiens) (UniProt P05362); assay: cell-based or functional assay
Sequence of intercellular adhesion molecule 1 (ICAM1) from Homo sapiens (Homo sapiens) (P05362 28-532 limits assumed): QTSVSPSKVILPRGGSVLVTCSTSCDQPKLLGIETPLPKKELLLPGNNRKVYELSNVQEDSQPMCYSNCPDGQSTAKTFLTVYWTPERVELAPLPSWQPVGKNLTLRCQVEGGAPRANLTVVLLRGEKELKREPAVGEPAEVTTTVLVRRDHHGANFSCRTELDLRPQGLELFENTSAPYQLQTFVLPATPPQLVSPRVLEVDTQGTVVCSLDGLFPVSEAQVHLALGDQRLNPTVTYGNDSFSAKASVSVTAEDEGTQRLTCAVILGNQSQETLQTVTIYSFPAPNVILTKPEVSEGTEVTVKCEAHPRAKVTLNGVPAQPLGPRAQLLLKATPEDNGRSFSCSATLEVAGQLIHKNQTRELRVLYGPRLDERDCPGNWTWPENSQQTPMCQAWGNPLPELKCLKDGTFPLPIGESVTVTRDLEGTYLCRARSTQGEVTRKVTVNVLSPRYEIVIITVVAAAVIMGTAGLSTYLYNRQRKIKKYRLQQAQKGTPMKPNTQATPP

refractory TNBC = refractory TNBC patients; cited from earlier work
MDA-MB-231 cells = settings: reported in literature; cited from earlier work

Compound: COc1cccc2c1C(=O)c1c(O)c3c(c(O)c1C2=O)C[C@@](O)(C(=O)CO)C[C@@H]3O[C@H]1C[C@H](N)[C@H](O)[C@H](C)O1 [free Dox, Doxorubicin]
Anti-tumor efficacy (MDA-MB-436 tumors): very limited efficacy

cellular internalization rate in three TNBC cell lines relative to MCF10A cells (imaging flow cytometry) [1]: 42 to 109 fold | cellular internalization rate in three TNBC cell lines relative to non-targeting IgG (imaging flow cytometry) [1]: 21 to 129 fold
Compound: Phycoerythrin (PE)-conjugated anti-human ICAM1 antibody (Clone: HCD54)

Compound: sacituzumab govitecan
Median progression-free survival (refractory TNBC): 5.5 months | Response rate (refractory TNBC): ~33% | Resistance of MDA-MB-231 cells (MDA-MB-231 cells): resistant
